Experimental data: PMC5893132, “Selective inhibition of histamine-evoked Ca^2+ signals by compartmentalized cAMP in human bronchial airway smooth muscle cells” (Cell Calcium, 2018)

Legend:
Format in all cases: cell-based, human
L-type Ca^2+ channels = experiment: Depolarization (K+)-evoked increase in [Ca2+]i in single fura-2-loaded hBASMCs; conditions: nimodipine 10 μM, 5 min; extracellular Na+ replaced with K+ 140 mM; all 44 cells, mean ± SD, single experiment; 50 ± 11 nM in absence
[1] = test system: Ca^2+ signals evoked by histamine, bradykinin or carbachol in hBASMCs; experiment: GPCR-evoked Ca2+ signals (histamine, bradykinin or carbachol, stated together) in hBASMCs; conditions: HBSS; for whether the inhibitor substantially affected the Ca2+ signals evoked by histamine, bradykinin or carbachol: ryanodine 50 μM or trans Ned-19 1 μM, 5 min
Procedure: (§1) Two methods were used to measure [Ca^2+]i in populations of hBASMCs. For measurements using a FlexStation III plate-reader (Molecular Devices, Sunnyvale, CA, USA), hBASMCs were seeded into 96-well plates (10^4 cells per well). After about 4 days, when the cells were confluent, the medium was replaced with SMGM-2 without serum or growth factor supplements, and the cells were used after a further 24 h. […] Cells were washed with HEPES-buffered saline (HBS: 135 mM NaCl, 5.9 mM KCl, 1.2 mM MgCl2, 1.5 mM CaCl2, 11.6 mM HEPES, 11.5 mM D-glucose, pH 7.3), and loaded with fluo-4 by incubation with fluo-4-AM (2 μM) in HBS (100 μL per well) containing pluronic F127 (0.02%, v/v) and probenecid (2.5 mM). After 1 h at 20 °C, the medium was replaced with HBS (100 μL per well) containing probenecid (2.5 mM). After a further incubation at 20 °C for 1 h, the medium was replaced with HBS (60–80 μL per well) or nominally Ca^2+-free HBS, and the cells were used immediately for experiments at 20 °C. […] Drug additions (20 μL at 4 or 5 times the final concentration) were added automatically. Fluorescence from fluo-4 (excitation 485 nm, emission 525 nm) was recorded at 1.44-s intervals using Softmax Pro 5.4 (Molecular Devices). Fluorescence was calibrated to [Ca^2+]i from: [Ca^2+]i=KDCa×(F−Fmin/Fmax−F) where, KDCa is the equilibrium dissociation constant of fluo-4 for Ca^2+ (345 nM), F is the recorded fluorescence, and Fmin and Fmax are the fluorescence values recorded after addition of triton-X-100 (0.1%, v/v) with either BAPTA (10 mM, Fmin) or CaCl2 (10 mM, Fmax). […] Fmax was determined for each well at the end of an experiment, and the average value was used for each column of 8 wells. Fmin was determined from parallel wells on each plate.
(§2) For measurements of [Ca^2+]i using an FDSS 7000 FLIPR (Hamamatsu), hBASMCs were seeded into 384-well plates (8000 cells per well) in 20 μL of SMGM-2 containing 5% serum. […] The exact composition of this ‘no-wash’ indicator kit is not disclosed by the manufacturer, but it contains fluo-4-AM and components that reduce background fluorescence. […]

[2] = test system: histamine-evoked Ca^2+ signals in hBASMCs; experiment: Histamine-evoked Ca2+ signals in populations of fluo-4-loaded hBASMCs; conditions: for effect on histamine-evoked Ca2+ signals: pre-treatment: 8-Br-cGMP, IBMX 20 min, forskolin 10 μM, NKH477 10 μM, butaprost 10 μM, TCS2510 1 μM 5 min; for effect on the sensitivity to histamine: trans Ned-19 1 μM or ryanodine 50 μM, 5 min, HBSS
Procedure: Two methods were used to measure [Ca^2+]i in populations of hBASMCs. For measurements using a FlexStation III plate-reader (Molecular Devices, Sunnyvale, CA, USA), hBASMCs were seeded into 96-well plates (10^4 cells per well). After about 4 days, when the cells were confluent, the medium was replaced with SMGM-2 without serum or growth factor supplements, and the cells were used after a further 24 h. This period in serum-free medium increased by about 2-fold the amplitude of the increases in [Ca^2+]i evoked by histamine (results not shown). Cells were washed with HEPES-buffered saline (HBS: 135 mM NaCl, 5.9 mM KCl, 1.2 mM MgCl2, 1.5 mM CaCl2, 11.6 mM HEPES, 11.5 mM D-glucose, pH 7.3), and loaded with fluo-4 by incubation with fluo-4-AM (2 μM) in HBS (100 μL per well) containing pluronic F127 (0.02%, v/v) and probenecid (2.5 mM). After 1 h at 20 °C, the medium was replaced with HBS (100 μL per well) containing probenecid (2.5 mM). After a further incubation at 20 °C for 1 h, the medium was replaced with HBS (60–80 μL per well) or nominally Ca^2+-free HBS, and the cells were used immediately for experiments at 20 °C. In some experiments, BAPTA (2.5 mM) was added to HBS during the recording; this reduced the free [Ca^2+] of the HBS to ∼120 nM without affecting the pH. Drug additions (20 μL at 4 or 5 times the final concentration) were added automatically. Fluorescence from fluo-4 (excitation 485 nm, emission 525 nm) was recorded at 1.44-s intervals using Softmax Pro 5.4 (Molecular Devices). Fluorescence was calibrated to [Ca^2+]i from: [Ca^2+]i=KDCa×(F−Fmin/Fmax−F) where, KDCa is the equilibrium dissociation constant of fluo-4 for Ca^2+ (345 nM), F is the recorded fluorescence, and Fmin and Fmax are the fluorescence values recorded after addition of triton-X-100 (0.1%, v/v) with either BAPTA (10 mM, Fmin) or CaCl2 (10 mM, Fmax). Although treatment with triton-X-100 releases fluo-4 from cells into the medium, the fluo-4 fluorescence is captured with the same efficiency whether it is trapped within cells or dispersed within the small volume of the wells (unpublished observations). Fmax was determined for each well at the end of an experiment, and the average value was used for each column of 8 wells. Fmin was determined from parallel wells on each plate.
For measurements of [Ca^2+]i using an FDSS 7000 FLIPR (Hamamatsu), hBASMCs were seeded into 384-well plates (8000 cells per well) in 20 μL of SMGM-2 containing 5% serum. After 24 h, the medium was replaced with 15 μL of serum-free SMGM-2, and after a further 6 h the cells were loaded with Ca^2+ indicator by addition of FLIPR calcium 4 assay kit (Molecular Devices) supplemented with probenecid (2.5 mM). The exact composition of this ‘no-wash’ indicator kit is not disclosed by the manufacturer, but it contains fluo-4-AM and components that reduce background fluorescence. The manufacture’s stock solution was diluted 10-fold into HBSS containing BSA (0.1%, w/v) and HEPES (20 mM); 5 μL of this solution was then added to each well (containing 15 μL of serum-free SMGM-2). After 2 h at 37 °C in humidified air containing 5% CO2, the plate was used for experiments at 20 °C. Most additions (5 μL) were prepared in HBSS supplemented with HEPES (20 mM) and BSA (0.1%, w/v). For more prolonged incubations, drugs were diluted in the initial loading medium (to avoid changes in dye-loading during the ‘no wash’ protocol). Fluorescence signals (excitation at 480 nm, emission at 540 nm) were calibrated to [Ca^2+]i after measurement of Fmin and Fmax uniquely for each well, using a KDCa = 345 nM.
All concentration-effect relationships were determined by addition of different drug concentrations to individual wells in the same multi-well plate, rather than by sequential additions to the same well. […]

[3] = test system: intracellular cAMP in hBASMCs; experiment: Intracellular cAMP in hBASMCs by mass spectrometry; conditions: IBMX 20 min; MS
Procedure: These methods were modified from. Confluent cultures of hBASMCs in 48-well plates were serum-deprived (6–24 h) and the medium was then replaced with HBSS (300 μL) containing HEPES (5 mM) and BSA (0.1%, w/v). Cells were stimulated at 20 °C, and reactions were terminated by aspiration of the medium and addition of acetonitrile (170 μL) containing dibutyryl cAMP (0.5 μM, to provide an internal standard). The plates were centrifuged (1500 xg, 15 min, 4 °C), supernatants (158 μL) were transferred to a 96-well, glass-coated plate (Thermo Scientific), and aqueous NH4HCO3 (pH 9.4, 93 μL) was added to each sample. After mixing and centrifugation (1500 xg, 15 min, 4 °C), samples were stored at 4 °C before analysis. Samples were analyzed by liquid chromatography tandem mass spectrometry (LC–MS/MS) using a Waters Acquity UPLC and a Sciex 5500 mass spectrometer equipped with an electrospray ionization source. ATP, ADP, AMP and cAMP were analyzed using a ZIC-pHILIC polymeric column (5-μm particle size, […]) maintained at 35 °C. Calibration standards were prepared in the lysis medium containing the internal standard, dibutyryl cAMP (0.5 μM). […] Samples were detected using multiple reaction monitoring in negative ion mode using the following parent-to-daughter mass transitions: cAMP m/z 327.9 → 133.9 (DP −100 V, CE −33 eV), AMP m/z 345.9 → 134.0 (DP −100 V, CE −50 eV), ADP m/z 426.0 → 134.0 (DP −100 V, CE −30 eV), ATP m/z 505.9 → 408.0 (DP −100 V, CE −35 eV), and internal standard dibutyryl cAMP m/z 468.1 → 175.0 (DP −100 V, CE −35 eV). Concentration-effect relationships were fitted to logistic equations for each experiment using GraphPad Prism (version 5, GraphPad Software, La Jolla, CA, USA), from which half-maximally effective drug concentrations (EC50), maximal responses, and Hill slopes were determined. For statistical analyses, maximal responses, Hill slopes and pEC50 (-logEC50) or pIC50 (-log of the half-maximal inhibitory concentration, IC50) values determined for individual experiments were pooled for statistical analysis. […]

[4] = test system: carbachol-evoked Ca^2+ signals in hBASMCs; experiment: Carbachol-evoked Ca2+ signals in populations of fluo-4-loaded hBASMCs; conditions: Homo sapiens; carbachol 10 μM; pre-incubation 30 min; n = 3; read-out: pIC50 for inhibition of the Ca2+ signals evoked by carbachol (converted)
Procedure: as §1, §2

[5] = test system: bradykinin-evoked Ca^2+ signals in hBASMCs; experiment: Bradykinin-evoked Ca2+ signals in populations of fluo-4-loaded hBASMCs; conditions: Homo sapiens; bradykinin 1 nM; pre-incubation 30 min; n = 3; read-out: pIC50 for inhibition of the Ca2+ signals evoked by bradykinin (converted)
Procedure: as §1, §2

[6] = test system: intracellular Ca^2+ stores of hBASMCs; experiment: Ca2+ content of intracellular stores, by ionomycin in Ca2+-free HBS; conditions: isoproterenol, forskolin 10 μM, 5 min, 2-APB 5 min, higher concentrations needed than for inhibition of GPCR-evoked signals

Structure (SMILES): COCCOC(=O)C1=C(C)NC(C)=C(C(=O)OC(C)C)C1c1cccc([N+](=O)[O-])c1 (stereo not shown) [nimodipine]
- peak increase in [Ca2+]i on depolarization in presence of inhibitor (L-type Ca^2+ channels): 20 ± 14 nM
- effect on the increases in [Ca2+]i evoked by histamine, bradykinin and carbachol ([1]; added 5 min before stimulus, nimodipine 10 μM, 2-APB indicated concentrations): unaffected

Structure (SMILES): CC(C)Cn1c(=O)n(C)c(=O)c2[nH]cnc21 [IBMX, 3-isobutyl-1-methylxanthine]
- effect on histamine-evoked Ca2+ signals [2]: an inhibition of histamine-evoked Ca^2+ signals
- effect on intracellular cAMP [3]: an accumulation of intracellular cAMP

Structure (SMILES): CC(C)[C@@]1(O)[C@@H](OC(=O)c2ccc[nH]2)[C@@]2(O)[C@@]3(C)C[C@]4(O)O[C@@]5([C@H](O)[C@@H](C)CC[C@]35O)[C@@]2(O)[C@@]14C [ryanodine]
- whether the inhibitor substantially affected the Ca2+ signals evoked by histamine, bradykinin or carbachol [1]: Neither
- effect on the sensitivity to histamine [2]: slightly reduced

Structure (SMILES): COc1ccc([C@H]2N[C@H](C(=O)O)Cc3c2[nH]c2ccccc32)cc1CN1CCN(c2ccccc2F)CC1 (relative stereo) [trans Ned-19, trans-Ned-19]
- whether the inhibitor substantially affected the Ca2+ signals evoked by histamine, bradykinin or carbachol [1]: Neither
- effect on the sensitivity to histamine [2]: slightly reduced

Structure (SMILES): CCCCCCCCCCCCCCCCCCOCC(COP(=O)([O-])OCC[N+](C)(C)C)OC (stereo not shown) [edelfosine]
- IC50 [4]: 39.8 µM
- IC50 [5]: 33.9 µM
- IC50 ([2]; Homo sapiens, histamine 10 μM, pre-incubation 30 min, n = 3, read-out: pIC50 for inhibition of the Ca2+ signals evoked by histamine (converted)): 22.9 µM

Structure (SMILES): C=C[C@@]1(C)CC(=O)[C@]2(O)[C@@]3(C)[C@@H](O)CCC(C)(C)[C@@H]3[C@H](O)[C@H](OC(C)=O)[C@@]2(C)O1 [forskolin]
- effect on the Ca2+ content of the intracellular stores [6]: Neither isoproterenol nor forskolin (10 μM, 5 min) affected
- effect on histamine-evoked Ca2+ signals [2]: mimicked the effect of isoproterenol
